In ChEMBL document CHEMBL5726922, “Chemokine CXCR1 and CXCR2 receptor antagonist compounds, and use thereof in the treatment of chemokine-mediated pathologies” (2019):
pIC50: −log10 of the molar value.

Assays:
[1] = target: T1, C-X-C chemokine receptor type 1 (Homo sapiens, UniProt P25024); assay: (§1) J. Immunol. 170: 2904-2911).To evaluate the direct interaction of the CXCR2 or CXCR1 receptor with β-arrestin 2, a test of β-arrestin 2 recruitment for CXCR2 or CXCR1 based on complementation of the β-galactosidase enzyme (Olson K. R., Eglen R. M., Beta-galactosidase complementation: a cell-based luminescent assay platform for drug discovery. Assay Drug Dev. Technol. 2007 February; 5(1); 137-44), as established by DiscoveRx Corporation was used. Stimulation of these two cell lines with CXCL8 (10 nM) induces the recruitment of β-arrestin 2, as indicated by a significant increase in the induction factor. All the CXCR2 antagonists are tested in a dose-dependent manner and the concentration corresponding to 50% inhibition of the response is determined (IC50=concentration of half-inhibition).β-Arrestin Recruitment Test: “PathHunter HEK293-CXCR2” or “U2OS hCXCR1 β-arrestin” cells (DiscoveRx Corporation) were seeded overnight at 10 000 cells/well (384-well format) in 20 μl of Opti MEM I medium. Preincubation with the antagonist or the vehicle for 30 minutes at 37° C. and 5% CO2 was followed by 60 minutes of stimulation with CXCL8 at 37° C. and 5% CO2. The cells were then placed at room temperature for 30 minutes. The PathHunter detection reagent (DiscoveRx Corporation) was added. […]
T1 sequence (P25024 whole entry): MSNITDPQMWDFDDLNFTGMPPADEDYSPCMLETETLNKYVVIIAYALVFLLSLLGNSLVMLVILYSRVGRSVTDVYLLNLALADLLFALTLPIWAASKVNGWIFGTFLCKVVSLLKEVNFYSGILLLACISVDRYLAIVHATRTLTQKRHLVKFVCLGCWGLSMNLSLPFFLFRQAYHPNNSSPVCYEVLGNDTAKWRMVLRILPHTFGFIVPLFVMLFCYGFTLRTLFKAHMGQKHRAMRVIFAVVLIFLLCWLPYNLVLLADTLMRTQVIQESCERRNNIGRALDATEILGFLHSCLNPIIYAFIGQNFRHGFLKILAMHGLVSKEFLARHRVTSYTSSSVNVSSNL

[2] = target: T2, C-X-C chemokine receptor type 2 (Homo sapiens, UniProt P25025); assay: as §1
T2 sequence (P25025 whole entry): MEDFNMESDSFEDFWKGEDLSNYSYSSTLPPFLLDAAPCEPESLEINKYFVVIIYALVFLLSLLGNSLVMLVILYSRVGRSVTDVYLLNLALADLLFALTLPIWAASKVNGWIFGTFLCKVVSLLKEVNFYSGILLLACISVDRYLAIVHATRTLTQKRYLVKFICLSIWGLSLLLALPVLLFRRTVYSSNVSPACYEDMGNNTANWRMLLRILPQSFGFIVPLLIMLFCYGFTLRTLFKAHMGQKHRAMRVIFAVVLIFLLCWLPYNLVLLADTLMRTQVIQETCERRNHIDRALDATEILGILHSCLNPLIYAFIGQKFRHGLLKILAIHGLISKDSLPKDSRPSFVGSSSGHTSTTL

pIC50 [1]: < 6.70
pIC50 [2]: < 7.70
Structure (SMILES): CC[C@@H](Nc1c(Nc2ccc(Cl)c(S(C)(=O)=NCCN(C)C)c2O)c(=O)c1=O)c1ccc(C)o1 (some centres not stated)
